In ChEMBL document CHEMBL1129843, “Synthesis of a pyrimido[4,5-b]azepine analog of 5,10-dideaza-5,6,7,8-tetrahydrofolic acid (DDATHF)” (Bioorg Med Chem Lett, 1997):

T1: Folylpolyglutamate synthase, mitochondrial (Homo sapiens) (UniProt Q05932)
T1 sequence (whole entry): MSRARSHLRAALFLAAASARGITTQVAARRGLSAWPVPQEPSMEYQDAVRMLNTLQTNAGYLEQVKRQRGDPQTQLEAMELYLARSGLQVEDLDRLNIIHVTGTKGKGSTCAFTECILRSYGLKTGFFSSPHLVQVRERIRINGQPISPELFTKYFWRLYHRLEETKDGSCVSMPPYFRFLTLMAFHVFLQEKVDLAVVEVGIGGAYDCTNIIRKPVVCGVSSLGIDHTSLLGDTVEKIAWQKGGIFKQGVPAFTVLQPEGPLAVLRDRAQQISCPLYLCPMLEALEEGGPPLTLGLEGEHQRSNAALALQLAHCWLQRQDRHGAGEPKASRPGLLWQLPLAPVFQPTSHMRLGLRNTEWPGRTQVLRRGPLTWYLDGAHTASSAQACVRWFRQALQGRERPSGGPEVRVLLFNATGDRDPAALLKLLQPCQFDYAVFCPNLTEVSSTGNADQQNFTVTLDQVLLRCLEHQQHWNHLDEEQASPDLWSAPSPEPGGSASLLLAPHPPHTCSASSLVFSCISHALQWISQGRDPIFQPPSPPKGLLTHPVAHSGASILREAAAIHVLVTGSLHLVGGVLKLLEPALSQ

T2: Trifunctional purine biosynthetic protein adenosine-3 (Mus musculus, UniProt Q64737)
T2 sequence (Q64737 whole entry): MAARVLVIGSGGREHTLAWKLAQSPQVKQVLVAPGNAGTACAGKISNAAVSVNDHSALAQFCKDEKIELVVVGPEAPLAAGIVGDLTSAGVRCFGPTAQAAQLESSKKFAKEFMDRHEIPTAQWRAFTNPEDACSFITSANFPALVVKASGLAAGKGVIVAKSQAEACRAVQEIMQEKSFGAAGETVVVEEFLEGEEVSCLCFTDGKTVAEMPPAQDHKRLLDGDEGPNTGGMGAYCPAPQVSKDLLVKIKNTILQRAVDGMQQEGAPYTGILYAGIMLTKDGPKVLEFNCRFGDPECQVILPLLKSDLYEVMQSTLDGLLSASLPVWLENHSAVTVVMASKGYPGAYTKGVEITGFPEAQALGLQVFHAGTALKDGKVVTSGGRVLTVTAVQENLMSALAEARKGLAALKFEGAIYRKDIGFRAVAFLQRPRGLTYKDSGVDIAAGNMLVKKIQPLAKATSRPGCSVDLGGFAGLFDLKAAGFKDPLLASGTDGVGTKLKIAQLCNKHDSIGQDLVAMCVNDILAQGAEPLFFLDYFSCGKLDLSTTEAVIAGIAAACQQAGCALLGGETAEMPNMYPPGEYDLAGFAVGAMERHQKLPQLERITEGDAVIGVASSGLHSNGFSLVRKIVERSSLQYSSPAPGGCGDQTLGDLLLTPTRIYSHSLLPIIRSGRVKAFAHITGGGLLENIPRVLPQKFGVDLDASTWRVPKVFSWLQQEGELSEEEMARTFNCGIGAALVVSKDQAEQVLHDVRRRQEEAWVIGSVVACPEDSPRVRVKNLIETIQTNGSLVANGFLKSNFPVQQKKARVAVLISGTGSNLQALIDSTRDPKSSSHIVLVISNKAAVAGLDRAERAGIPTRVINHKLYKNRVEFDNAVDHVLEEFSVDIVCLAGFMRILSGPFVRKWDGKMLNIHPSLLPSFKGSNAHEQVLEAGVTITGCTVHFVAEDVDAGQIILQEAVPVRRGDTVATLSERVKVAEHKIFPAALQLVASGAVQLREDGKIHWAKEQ

B1: Folylpolyglutamate synthase, mitochondrial (Homo sapiens), Q05932 (protein)
chain: T1 sequence (whole entry)

Key:
[1] = biological target: T1, Folylpolyglutamate synthase, mitochondrial (Homo sapiens); test: Ratio of Vmax to Km value and expressed as k'; settings: Sus scrofa
CCRF-CEM = test: Tested in vitro for cellular cytotoxicity against human T-cell derived lymphoblastic leukemia (CCRF-CEM) cells; assay type: functional, cell-based
[2] = biological target: T2, Trifunctional purine biosynthetic protein adenosine-3; test: Tested in vitro for its inhibition of trifunctional glycinamide ribonucleotide formyltransferase (GARFT) isolated from murine L1210 leukemia cells
[3] = substrate: Nc1cc2c(c(O)n1)CC(CCc1ccc(C(=O)N[C@@H](CCC(=O)O)C(=O)O)cc1)CCN2; settings: Sus scrofa
Description: In vitro Folyl-poly-gamma-glutamyl synthetase (FPGS) affinity

Molecule | k' [1] | IC50 (CCRF-CEM) | Ki [2] | Km [3]
Nc1cc2c(c(O)n1)CC(CCc1ccc(C(=O)N[C@@H](CCC(=O)O)C(=O)O)cc1)CCN2 (some centres undefined) | 20 | 47 nM | 147 nM | 
Nc1nc2c(c(=O)[nH]1)C[C@H](CCc1ccc(C(=O)NC(CCC(=O)O)C(=O)O)cc1)CN2 (some centres undefined) |  | 16 nM | 120 nM | 
Nc1nc2c(c(=O)[nH]1)C[C@@H](CCc1ccc(C(=O)N[C@@H](CCC(=O)O)C(=O)O)cc1)CN2 [LOMETREXOL] | 59 | 15.2 nM | 59.7 nM | 
B1 |  |  |  | 39 µM
